# Laboratory results: patent US10576062B2, “Carbamoyloxymethyl triazole cyclohexyl acids as LPA antagonists” (Bristol-Myers Squibb Company, priority 2016, dated 2020)
# pIC50: −log10 of the molar value.
# Target: T1, human LPA1 (Homo sapiens, UniProt Q92633)
# T1 construct: expressed in transfected cells; host or cells: Chinese hamster ovary (CHO) cells
# Assay: LPA1 functional antagonist assay (LPA-induced calcium flux)
# Format: cell-based
# Conditions: human LPA1; read-out: hLPA1 IC50
# Method in brief: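 CHO cells overexpressing human LPA1, loaded with calcium dye 30 min at 37° C, were preincubated 20 min at room temperature with compound (0.08 nM–5 μM, 0.5% DMSO) in HBSS/20 mM HEPES/0.1% fatty acid-free BSA.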
# T1 sequence (Q92633 whole entry): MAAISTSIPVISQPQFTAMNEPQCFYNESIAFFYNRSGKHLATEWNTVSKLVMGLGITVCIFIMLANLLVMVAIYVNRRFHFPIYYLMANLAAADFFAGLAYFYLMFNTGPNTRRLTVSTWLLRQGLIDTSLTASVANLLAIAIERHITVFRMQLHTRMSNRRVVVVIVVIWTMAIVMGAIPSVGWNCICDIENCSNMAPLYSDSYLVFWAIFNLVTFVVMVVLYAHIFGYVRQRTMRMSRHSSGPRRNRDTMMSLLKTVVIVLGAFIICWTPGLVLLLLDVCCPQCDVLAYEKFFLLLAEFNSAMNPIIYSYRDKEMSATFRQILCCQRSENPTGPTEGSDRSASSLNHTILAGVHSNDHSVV
row,pIC50,SMILES
1,6.79,"Cc1nc(-c2nnn(C)c2COC(=O)N2CC3(CCCC3)C2)ccc1O[C@H]1CCC[C@H](C(=O)O)C1 [Example 159, (1S,3S)-3-((6-(5-(((2-azaspiro[3.4]octane-2-carbonyl)oxy)methyl)-1-methyl-1H-1,2,3-triazol-4-yl)-2-methylpyridin-3-yl)oxy)cyclohexane-1-carboxylic acid]"
2,7.21,"Cc1nc(-c2nnn(C)c2COC(=O)N(C)C2CC(C)(C)C2)ccc1O[C@H]1CCC[C@@H](C(=O)O)C1 [Example 160, (1R,3S)-3-((6-(5-((((3,3-dimethylcyclobutyl)(methyl)carbamoyl)oxy)methyl)-1-methyl-1H-1,2,3-triazol-4-yl)-2-methylpyridin-3-yl)oxy)cyclohexane-1-carboxylic acid]"
3,7.47,"Cc1nc(-c2nnn(C)c2COC(=O)N(C)CCC2CC2)ccc1O[C@H]1CCC[C@H](C(=O)O)C1 [Example 162, (1S,3S)-3-((6-(5-((((2-cyclopropylethyl)(methyl)carbamoyl)oxy)methyl)-1-methyl-1H-1,2,3-triazol-4-yl)-2-methylpyridin-3-yl)oxy)cyclohexane-1-carboxylic acid]"
4,6.50,"Cc1nc(-c2nnn(C)c2COC(=O)N2C3CCC2CC3)ccc1O[C@H]1CCC[C@H](C(=O)O)C1 [Example 167, (1S,3S)-3-((6-(5-(((-7-azabicyclo[2.2.1]heptane-7-carbonyl)oxy)methyl)-1-methyl-1H-1,2,3-triazol-4-yl)-2-methylpyridin-3-yl)oxy)cyclohexane-1-carboxylic acid]"
5,7.54,"Cc1nc(-c2nnn(C)c2COC(=O)N(C)C2CC(C)(C)C2)ccc1O[C@H]1CCC[C@H](C(=O)O)C1 [Example 168, (1S,3S)-3-((6-(5-((((3,3-dimethyl-cyclobutyl)(methyl)carbamoyl)oxy)methyl)-1-methyl-1H-1,2,3-triazol-4-yl)-2-methylpyridin-3-yl)oxy)cyclohexane-1-carboxylic acid]"
6,6.74,"Cc1nc(-c2nnn(C)c2COC(=O)N(C)C(C)(C)C)ccc1O[C@H]1CCC[C@H](C(=O)O)C1 [Example 170, (1S,3S)-3-((6-(5-(((tert-butyl(methyl)carbamoyl)oxy)methyl)-1-methyl-1H-1,2,3-triazol-4-yl)-2-methylpyridin-3-yl)oxy)cyclohexane-1-carboxylic acid]"
7,6.79,"Cc1nc(-c2nnn(C)c2COC(=O)N2CCC3(CC2)CC3)ccc1O[C@H]1CCC[C@H](C(=O)O)C1 [Example 171, (1S,3S)-3-((6-(5-(((6-azaspiro[2.5]octane-6-carbonyl)oxy)methyl)-1-methyl-1H-1,2,3-triazol-4-yl)-2-methylpyridin-3-yl)oxy)cyclohexane-1-carboxylic acid]"
8,6.51,"CC(C)=CCN(C)C(=O)OCc1c(-c2ccc(O[C@H]3CCC[C@@H](C(=O)O)C3)c(C)n2)nnn1C [Example 172, (1R,3S)-3-((2-methyl-6-(1-methyl-5-(((methyl(3-methylbut-2-en-1-yl)carbamoyl)oxy)methyl)-1H-1,2,3-triazol-4-yl)pyridin-3-yl)oxy)cyclohexane-1-carboxylic acid]"
9,6.88,"CCCN(C)C(=O)OCc1c(-c2ccc(O[C@H]3CCC[C@H](C(=O)O)C3)cn2)nnn1C [Example 173, (1S,3S)-3-((6-(1-methyl-5-(((methyl(propyl)carbamoyl)oxy)methyl)-1H-1,2,3-triazol-4-yl)pyridin-3-yl)oxy)cyclohexane-1-carboxylic acid]"
10,7.24,"CN(C(=O)OCc1c(-c2ccc(O[C@H]3CCC[C@H](C(=O)O)C3)cn2)nnn1C)C1CCC1 [Example 174, (1S,3S)-3-((6-(5-(((cyclobutyl(methyl)carbamoyl)oxy)methyl)-1-methyl-1H-1,2,3-triazol-4-yl)pyridin-3-yl)oxy)cyclohexane-1-carboxylic acid]"

# Same assay, conditions: read-out: hLPA1 IC50
row,pIC50,SMILES
1,6.60,"Cc1nc(-c2nnn(C)c2COC(=O)N(C)C2CC2)ccc1O[C@H]1CCC[C@H](C(=O)O)C1 [Example 142, (1S,3S)-3-((6-(5-(((cyclopropyl(methyl)carbamoyl)oxy)methyl)-1-methyl-1H-1,2,3-triazol-4-yl)-2-methylpyridin-3-yl)oxy)cyclohexane-1-carboxylic acid]"
2,6.29,"Cc1nc(-c2nnn(C)c2COC(=O)N2CCC(F)(F)C2)ccc1O[C@H]1CCC[C@H](C(=O)O)C1 [Example 143, (1S,3S)-3-((6-(5-(((3,3-difluoro-pyrrolidine-1-carbonyl)oxy)methyl)-1-methyl-1H-1,2,3-triazol-4-yl)-2-methylpyridin-3-yl)oxy)cyclohexane-1-carboxylic acid]"
3,7.05,"Cc1nc(-c2nnn(C)c2COC(=O)N2CCC3(CC3)C2)ccc1O[C@H]1CCC[C@H](C(=O)O)C1 [Example 144, (1S,3S)-3-((6-(5-(((5-azaspiro[2.4]heptane-5-carbonyl)oxy)methyl)-1-methyl-1H-1,2,3-triazol-4-yl)-2-methylpyridin-3-yl)oxy)cyclohexane-1-carboxylic acid]"
4,7.03,"Cc1nc(-c2nnn(C)c2COC(=O)N(C)CC2CC(F)(F)C2)ccc1O[C@H]1CCC[C@H](C(=O)O)C1 [Example 145, (1S,3S)-3-((6-(5-(((((3,3-difluoro-cyclobutyl)methyl)(methyl)carbamoyl)oxy)methyl)-1-methyl-1H-1,2,3-triazol-4-yl)-2-methylpyridin-3-yl)oxy)cyclohexane-1-carboxylic acid]"
5,5.74,"Cc1nc(-c2nnn(C)c2COC(=O)N(C)C2CC23CCC3)ccc1O[C@H]1CCC[C@@H](C(=O)O)C1 (stereo partly drawn) [Example 146, (1R,3S)-3-((2-methyl-6-(1-methyl-5-(((methyl(spiro[2.3]hexan-1-yl)carbamoyl)oxy)methyl)-1H-1,2,3-triazol-4-yl)pyridin-3-yl)oxy)cyclohexane-1-carboxylic acid]"
6,6.49,"Cc1nc(-c2nnn(C)c2COC(=O)N2CC3CCC2C3)ccc1O[C@H]1CCC[C@H](C(=O)O)C1 (stereo partly drawn) [Example 148, (1S,3S)-3-((6-(5-(((-2-azabicyclo[2.2.1]heptane-2-carbonyl)oxy)methyl)-1-methyl-1H-1,2,3-triazol-4-yl)-2-methylpyridin-3-yl)oxy)cyclohexane-1-carboxylic acid]"
7,6.74,"Cc1nc(-c2nnn(C)c2COC(=O)N2CCC3CCCC32)ccc1O[C@H]1CCC[C@H](C(=O)O)C1 (stereo partly drawn) [Example 149, (1S,3S)-3-((2-methyl-6-(1-methyl-5-(((octahydrocyclopenta[b]pyrrole-1-carbonyl)oxy)methyl)-1H-1,2,3-triazol-4-yl)pyridin-3-yl)oxy)cyclohexane-1-carboxylic acid]"
8,6.76,"Cc1nc(-c2nnn(C)c2COC(=O)N2CC(C)(C)C2)ccc1O[C@H]1CCC[C@H](C(=O)O)C1 [Example 155, (1S,3S)-3-((6-(5-(((3,3-dimethylazetidine-1-carbonyl)oxy)methyl)-1-methyl-1H-1,2,3-triazol-4-yl)-2-methylpyridin-3-yl)oxy)cyclohexane-1-carboxylic acid]"
9,6.64,"Cc1nc(-c2nnn(C)c2COC(=O)N2CC(C)C2)ccc1O[C@H]1CCC[C@H](C(=O)O)C1 [Example 156, (1S,3S)-3-((2-methyl-6-(1-methyl-5-(((3-methylazetidine-1-carbonyl)oxy)methyl)-1H-1,2,3-triazol-4-yl)pyridin-3-yl)oxy)cyclohexane-1-carboxylic acid]"
